Measurements from publication PMC9029323, “In Silico Identification of Novel Inhibitors Targeting the Homodimeric Interface of Superoxide Dismutase from the Dental Pathogen Streptococcus mutans” (Antioxidants, 2022).

Assays:
SmSOD = biological target: T1, SmSOD (Streptococcus mutans serotype c, UniProt P09738); assay: SOD activity assay (inhibition of cytochrome c reduction, xanthine/xanthine oxidase method) with SmSOD; format: biochemical; settings: for remaining activity at 50 µM: 50 µM compound; for remaining activity at 50 µM / remaining activity at 100 µM / IC50: ALS-31 derivatives, Table 2; for remaining activity at 50 µM / remaining activity at 100 µM: read-out: Residual SOD Activity (%) in the Presence of [Compound]; for remaining activity at 100 µM: 100 µM compound; for IC50: SmSOD activity, read-out: IC50; for effect on SmSOD activity (in words): screening concentrations or inhibition profile up to 300 µM
T1 construct: His-tail; made in house; host or cells: Escherichia coli BL21(DE3), vector vSmSOD (pET-22b(+)-derived)
T1 sequence (P09738 2-203): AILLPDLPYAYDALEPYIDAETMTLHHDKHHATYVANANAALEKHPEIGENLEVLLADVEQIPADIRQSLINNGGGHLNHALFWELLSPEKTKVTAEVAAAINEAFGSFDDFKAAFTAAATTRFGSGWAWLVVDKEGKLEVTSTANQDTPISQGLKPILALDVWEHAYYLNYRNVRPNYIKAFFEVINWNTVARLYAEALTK
From the text: Purified recombinant forms of SmSOD and StSOD were obtained through a heterologous expression system constituted by the Escherichia coli BL21(DE3) strain transformed with appropriate expression vectors, vSmSOD [11] or vStSOD [12]. These pET-22b(+)- or pET-28b(+)-derived plasmids led to the production of recombinant forms of SmSOD or StSOD, respectively fused to a His-tail, useful for their one-step purification by affinity chromatography, as previously described [11, 12]. The improvement of Mn uptake by SmSOD was realised as previously described [11, 12, 13]. The resulting metal (Fe and Mn) content in the cambialistic enzyme was determined by graphite furnace atomic absorption spectrometry with a Shimadzu ACS-6100 auto sampler [46]. Fe-SOD from Escherichia coli (cat. SRP6107) and the Cu/Zn-SOD from bovine erythrocytes (cat. 574594) were purchased from Sigma–Aldrich. A recombinant form of the eukaryal Mn–SOD from rat mitochondria was prepared as previously described [19]. Protein concentration was determined by the Bradford method, using bovine serum albumin as standard [47]. […] One unit of SOD activity was defined as the amount of enzyme that caused 50% inhibition of cytochrome c reduction.

[1] = test system: Streptococcus mutans ATCC-700610; assay: Crystal violet staining biofilm biomass assay; format: cell-based; settings: Streptococcus mutans, ATCC700610, 24 h, read-out: inhibition of biofilm biomass formation
Method: (§1) The bacterial strain used for antimicrobial assays was Streptococcus mutans ATCC-700610. The strain was stored in 15% (v/v) glycerol stocks at −80 °C. Before each experiment, cells were subcultured from the stocks into Trypticase Soy Agar (TSA, cat. PA-254051.06) with 5% Sheep Blood (Becton Dickinson, Sparks, NV, USA) plates at 37 °C in 5% CO2 atmosphere for 48 h.
The crystal violet (CV) staining method was used to measure biofilm biomass formed in flat-bottomed 96-well microplates in the presence of ALS-31 or ALS-31-9, as described by Stepanović et al., with some modifications. A bacterial suspension of approximately 1.5 × 10^6 CFU/mL in BHI supplemented with 1% (w/v) glucose was prepared, and 100-µL aliquots of this suspension were incubated with 100 µL of serial dilutions of each compound. The microplate was incubated at 37 °C for 24 h, after which the non-adherent cells were gently aspirated and the wells gently rinsed with PBS (Sigma–Aldrich). The adhered biofilm was dried at 60 °C for 30 min and subsequently stained with 0.1% (w/v) crystal violet solution for 30 min. After washing with PBS and solubilization with absolute ethanol to release the dye from the biofilm, the plate was read at 570 nm in a spectrophotometer. The absorbance recorded was related to the amount of biofilm produced. The reduction in the mass of the biofilm was expressed as a percentage by using the formula [(Ac-At)/Ac] × 100, where Ac is the OD570 for the control wells and At is the OD570 in the presence of the tested compound.

[2] = test system: Streptococcus mutans ATCC-700610; assay: Broth micro-dilution antibacterial assay (planktonic growth); format: cell-based; settings: 24 h
Method: as §1
The antibacterial activity of compounds ALS-31 or ALS-31-9 was assayed in S. mutans cultures by a standard broth micro-dilution method in 96-well polystyrene plates using Brain-Heart Infusion broth (BHI, cat. 255003, Becton Dickinson, Sparks, NV, USA). One hundred microliters of bacterial suspension adjusted to approximately 1.5 × 10^6 CFU/mL were incubated with 100 µL of serial dilutions of the compounds dissolved in final 1.0% (v/v) DMSO as a vehicle. The plates were incubated at 37 °C in 5% CO2 atmosphere for 24 h under shaking (300 rpm). The medium turbidity was measured by a spectrophotometer at 595 nm (Bio-Rad Laboratories Inc., Hercules, CA, USA). Compound-free wells in 1.0% (v/v) DMSO were used as controls (100% planktonic growth), and antibacterial activity was expressed as a percentage of residual growth. Chlorhexidine acetate (CHX, cat. 51094, Sigma-Aldrich, St. Louis, MO, USA) solution (1 mg/mL) was prepared and included as control for the assay of S. mutans’ susceptibility (MIC referred to [51]). Each compound was tested in triplicate; each experiment was performed twice.

`O=C(O)CCNC(=O)COc1ccc2c3c(c(=O)oc2c1)CCCC3` [ALS-31-7] showed a remaining activity at 50 µM (SmSOD) of 95.4% and a remaining activity at 100 µM (SmSOD) of 125%.
For `O=C(O)CNC(=O)CNC(=O)COc1ccc2c3c(c(=O)oc2c1)CCCC3` [ALS-31-12], the remaining activity at 50 µM (SmSOD) was 75.6% and the remaining activity at 100 µM (SmSOD) was 125%.
`CSCCC(NC(=O)CCNC(=O)COc1cc2oc(=O)c3c(c2cc1C)CCCC3)C(=O)O` (stereo not drawn) [ALS-31-8] gave a remaining activity at 50 µM (SmSOD) of 69.2%, a remaining activity at 100 µM (SmSOD) of 76.9% and an IC50 (SmSOD) of 292 ± 30 µM. For the same compound, the “effect on SmSOD activity (in words)” value (SmSOD) was “dose-dependent reduction”.
`CSCCC(NC(=O)COc1ccc2c3c(c(=O)oc2c1)CCCC3)C(=O)O` (stereo not drawn) [ALS-31-10] was tested, and the remaining activity at 50 µM (SmSOD) was 75%, the remaining activity at 100 µM (SmSOD) was 68.9% and the IC50 (SmSOD) was 139 ± 8 µM. The “effect on SmSOD activity (in words)” value (SmSOD) was “dose-dependent reduction”.
For `CC(NC(=O)COc1ccc2c3c(c(=O)oc2c1)CCCC3)C(=O)NCC(=O)NCC(=O)O` (stereo not drawn) [ALS-31-5], the remaining activity at 50 µM (SmSOD) was 93.4% and the remaining activity at 100 µM (SmSOD) was 99.6%.
For `CCCC(NC(=O)COc1ccc2c3c(c(=O)oc2c1)CCCC3)C(=O)NCCCC(=O)O` (stereo not drawn) [ALS-31-9], the inhibition at 13.5 µM ([1]; 13.5 µM) was 29.4%, the inhibition at 27.3 µM ([1]; 27.3 µM) was 62.1% and the “percentage of planktonic growth of S. mutans” value ([2]; 54 µM) was 79.0 ± 4.6%. The “percentage of planktonic growth of S. mutans” value ([2]; 108 µM) was 39.5 ± 2.1%, the “planktonic growth of S. mutans compared with 108 µM” value ([2]; 216 µM) was “no further reduction” and the “concentration up to which no antimicrobial activity is displayed in S. mutans suspensions” value [2] was ≤ 25 µM. The remaining activity at 50 µM (SmSOD) was 65.3%, the remaining activity at 100 µM (SmSOD) was 50.3% and the IC50 (SmSOD) was 64 ± 15 µM. The “improved inhibition power on SmSOD compared to lead ALS-31” value (SmSOD; ratio of IC50 values) was 2.5 fold and the “effect on SmSOD activity (in words)” value (SmSOD) was “dose-dependent reduction”.
`CSCCC(NC(=O)CCNC(=O)COc1ccc2c3c(c(=O)oc2c1)CCC3)C(=O)O` (stereo not drawn) [ALS-31-3] gave a remaining activity at 50 µM (SmSOD) of 78.8% and a remaining activity at 100 µM (SmSOD) of 104%.
`O=C(O)CCC(NC(=O)COc1ccc2c3c(c(=O)oc2c1)CCC3)C(=O)O` (stereo not drawn) [ALS-31-2] was tested, and the remaining activity at 50 µM (SmSOD) was 89.8% and the remaining activity at 100 µM (SmSOD) was 113%.
`CSCCC(NC(=O)COc1cc(C)cc2oc(=O)c3c(c12)CCC3)C(=O)NCCC(=O)O` (stereo not drawn) [ALS-31-4] gave a remaining activity at 50 µM (SmSOD) of 92.6% and a remaining activity at 100 µM (SmSOD) of 96.8%.
With `CSCCC(NC(=O)COc1ccc2c3c(c(=O)oc2c1)CCC3)C(=O)O` (stereo not drawn) [ALS-31-1] the remaining activity at 50 µM (SmSOD) was 104% and the remaining activity at 100 µM (SmSOD) was 97.2%.
In the case of `O=C(O)CCCNC(=O)COc1ccc2c3c(c(=O)oc2c1)CCCC3` [ALS-31-6], the remaining activity at 50 µM (SmSOD) is reported as 75.1%, the remaining activity at 100 µM (SmSOD) is reported as 78% and the IC50 (SmSOD) is reported as 127 ± 12 µM. For the same compound, the “effect on SmSOD activity (in words)” value (SmSOD) was “dose-dependent reduction”.
For `CCCC(NC(=O)COc1ccc2c3c(c(=O)oc2c1)CCCC3)C(=O)O` (stereo not drawn) [ALS-31-11], the remaining activity at 50 µM (SmSOD) was 83.7% and the remaining activity at 100 µM (SmSOD) was 125%.
